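Five concentrations, 48 hours, 96-well plates. The concentration for 50% growth inhibition is given as GI50. TGI: concentration producing complete growth inhibition.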

Some test systems named below: M14 melanoma; MOLT-4 leukemia; OVCAR-5 ovarian; RPMI-8226 leukemia; RXF 393 renal; UO-31 renal; DU-145 prostate; MDA-MB-231 breast; NCI-H522 lung.
Holding throughout (assay): growth of human tumour cells (NCI), 48 h

For `O=C1CC2Sc3ccccc3N=C2N1c1ccc(Cl)cc1Cl` (stereo not drawn), the TGI in the assay on M14 melanoma, in the assay on MOLT-4 leukemia, in the assay with OVCAR-5 ovarian, in the assay on RPMI-8226 leukemia, with RXF 393 renal and in the assay with UO-31 renal was greater than 100 µM in each case.

For the compound `COc1cc(/C=C\c2cccnc2Nc2ccccc2)cc(OC)c1OC`, the GI50 is 6.22 µM in the assay with DU-145 prostate; 8.99 µM in the assay on M14 melanoma; 12.6 µM with MDA-MB-231 breast; 6.72 µM in the assay on MOLT-4 leukemia; 7.44 µM with NCI-H522 lung; 16.3 µM in the assay with OVCAR-5 ovarian. The GI50 in the assay on RPMI-8226 leukemia is 6.83 µM; in the assay on RXF 393 renal, 5.22 µM; in the assay with UO-31 renal, 5.09 µM. Besides, the TGI was greater than 100 µM in the assay with DU-145 prostate; 38.1 µM in the assay on M14 melanoma; greater than 100 µM in the assay on MDA-MB-231 breast; 46.2 µM in the assay on MOLT-4 leukemia; 40.7 µM in the assay on NCI-H522 lung; greater than 100 µM in the assay with OVCAR-5 ovarian. Besides, the TGI with RPMI-8226 leukemia came out at 34.8 µM; in the assay on RXF 393 renal, 64.8 µM; in the assay on UO-31 renal, 72.8 µM.

For the compound `Clc1ccccc1C1=NN(c2ccccc2)C2c3cc(Br)ccc3OCC12` (stereo not drawn), the TGI in the assay with MOLT-4 leukemia, in the assay on NCI-H522 lung, with OVCAR-5 ovarian, in the assay with RPMI-8226 leukemia, in the assay on RXF 393 renal and with UO-31 renal was greater than 100 µM in each case.

As for `C/C(=N/Nc1ccc([N+](=O)[O-])cc1[N+](=O)[O-])C(CC(C(=O)Nc1ccccc1C)/C(C)=N\Nc1ccc([N+](=O)[O-])cc1[N+](=O)[O-])C(=O)Nc1ccccc1C` (stereo not drawn), the TGI was 46 µM in the assay with M14 melanoma; 41.8 µM with NCI-H522 lung; 31 µM in the assay on OVCAR-5 ovarian; greater than 69.3 µM with RPMI-8226 leukemia; 24.3 µM in the assay on RXF 393 renal; 39.9 µM with UO-31 renal.

Consider `O=[N+]([O-])O.[NH-]C1CCCCC1[NH-].[NH-]C1CCCCC1[NH-].[NH-]C1CCCCC1[NH-].[OH-].[OH-].[OH-].[Pt+4].[Pt+4].[Pt+4]` (stereo not drawn), for which the GI50 with DU-145 prostate was 1.35 µM; with M14 melanoma, 0.918 µM; in the assay on MDA-MB-231 breast, 4.01 µM; with MOLT-4 leukemia, 0.0283 µM; in the assay with NCI-H522 lung it was 0.212 µM; in the assay on OVCAR-5 ovarian, 2.03 µM. For the same compound, the GI50 in the assay on RPMI-8226 leukemia was 0.0311 µM; in the assay on RXF 393 renal, 1.2 µM; with UO-31 renal, 0.373 µM. For the same compound, the TGI in the assay with DU-145 prostate is 50 µM; with M14 melanoma, 11.9 µM; in the assay on MDA-MB-231 breast, greater than 64.4 µM; in the assay with MOLT-4 leukemia, 2.2 µM; in the assay on NCI-H522 lung it was 2.98 µM; in the assay with OVCAR-5 ovarian, 93.8 µM. In addition, the TGI in the assay on RPMI-8226 leukemia is greater than 24.2 µM; with RXF 393 renal, 17.3 µM; with UO-31 renal, 15.5 µM.

Take `C/C(=N\NC(=S)N1CCC(C2CCN(C(=S)N/N=C(\C)c3ccccn3)CC2)CC1)c1ccccn1`: the TGI in the assay with M14 melanoma, in the assay with NCI-H522 lung, in the assay on OVCAR-5 ovarian, in the assay on RPMI-8226 leukemia, in the assay with RXF 393 renal and in the assay on UO-31 renal was greater than 100 µM in each case.

As to `C#Cc1ccc(-n2c(/C=C/c3cc(OC)c(OC)c(OC)c3)nc3ncccc3c2=O)cc1`, the GI50 in the assay with DU-145 prostate is 5.36 µM; with M14 melanoma it was 4.94 µM; in the assay on MDA-MB-231 breast it was 5.53 µM; with NCI-H522 lung, 2.33 µM; with OVCAR-5 ovarian, greater than 100 µM; with RPMI-8226 leukemia, 3.6 µM. The GI50 was 7.04 µM with RXF 393 renal and 4.09 µM with UO-31 renal. In addition, the TGI in the assay on DU-145 prostate is greater than 100 µM; with M14 melanoma, greater than 100 µM; in the assay on MDA-MB-231 breast, greater than 100 µM; in the assay with NCI-H522 lung, 6.29 µM; in the assay with OVCAR-5 ovarian it was greater than 100 µM; in the assay with RPMI-8226 leukemia it was greater than 100 µM. Also, the TGI with RXF 393 renal and in the assay on UO-31 renal was greater than 100 µM throughout.

In the case of `COC(=O)C1=C(O)C(C(=O)OC)[C@@]2(O)[C@@H](C(=O)OC)C(c3ccc(OC(=O)C(CC(C)C)NC(C)=O)cc3)C[C@@H]1[C@@H]2C(=O)OC` (stereo partly drawn), the GI50 in the assay on M14 melanoma was 27.5 µM; with MDA-MB-231 breast, 30 µM; in the assay on MOLT-4 leukemia, 48.3 µM; in the assay on NCI-H522 lung, 60.9 µM; with OVCAR-5 ovarian, 32.2 µM; in the assay on RPMI-8226 leukemia, greater than 100 µM. The GI50 with RXF 393 renal and in the assay on UO-31 renal was greater than 100 µM throughout. In addition, the TGI in the assay on M14 melanoma is 88.1 µM; with MDA-MB-231 breast it was greater than 100 µM; with MOLT-4 leukemia, 97.2 µM; in the assay with NCI-H522 lung it was greater than 100 µM; with OVCAR-5 ovarian it was greater than 100 µM; in the assay on RPMI-8226 leukemia it was greater than 100 µM. Also, the TGI with RXF 393 renal and in the assay with UO-31 renal was greater than 100 µM throughout.

For the compound `O=C1c2cccc3cccc(c23)C(=O)N1CCCN1CCN(CCCN2C(=O)c3cccc4cccc(c34)C2=O)CC1`, the TGI with M14 melanoma, in the assay on MOLT-4 leukemia, with OVCAR-5 ovarian, in the assay on RPMI-8226 leukemia, in the assay with RXF 393 renal and in the assay on UO-31 renal was greater than 100 µM each time.

For `COc1cc(CC(=O)c2ccc3c(c2)OCO3)cc(OC)c1OC`, the TGI in the assay with M14 melanoma, with MOLT-4 leukemia, with NCI-H522 lung, with OVCAR-5 ovarian, in the assay on RPMI-8226 leukemia and with RXF 393 renal was greater than 100 µM in each case. In the assay on UO-31 renal, this compound yielded a TGI greater than 100 µM.

Consider `Cn1c(COC(=O)NCCN2CCOCC2)nc2c(N3CCOCC3)nc(-c3ccccc3)nc21`, for which the GI50 is 1.25 µM in the assay on DU-145 prostate; 1.15 µM with M14 melanoma; 1.3 µM in the assay with MDA-MB-231 breast; 0.972 µM with MOLT-4 leukemia; 0.424 µM with NCI-H522 lung; 1.6 µM in the assay with OVCAR-5 ovarian. Moreover, the results for the GI50 with RXF 393 renal and with UO-31 renal were 0.797 µM and 0.838 µM, respectively. Further, the TGI with DU-145 prostate was found to be 2.68 µM; in the assay with M14 melanoma, 2.58 µM; with MDA-MB-231 breast, 2.88 µM; with MOLT-4 leukemia, 5.96 µM; with NCI-H522 lung, 2.02 µM; with OVCAR-5 ovarian it was 3.66 µM. Also, the TGI with RXF 393 renal was determined as 2.22 µM; in the assay with UO-31 renal it was 2.18 µM.

`COc1ccc(-n2nc(C)c3c2N(C)C2(C)C[C@@H]4C3(C)[C@@H]3CC4(C2)N(C)c2c(c(C)nn2-c2ccc(OC)cc2)[C@H]3C)cc1` (stereo partly drawn): the GI50 was 23 µM in the assay on DU-145 prostate; 6.35 µM in the assay on MDA-MB-231 breast; 0.891 µM with NCI-H522 lung; greater than 100 µM with OVCAR-5 ovarian; 2.92 µM in the assay on RXF 393 renal. The TGI in the assay on DU-145 prostate is greater than 100 µM; with MDA-MB-231 breast it was 48.3 µM; with NCI-H522 lung, 6.94 µM; with OVCAR-5 ovarian, greater than 100 µM; in the assay with RXF 393 renal, 13.3 µM.

On to `COC(=O)C1CCC(=NC2c3ccccc3-c3ccccc32)N1` (stereo not drawn), for which the TGI with M14 melanoma was greater than 100 µM; with MOLT-4 leukemia it was greater than 100 µM; in the assay with NCI-H522 lung, 58.6 µM; with OVCAR-5 ovarian it was greater than 100 µM; with RPMI-8226 leukemia it was greater than 100 µM; in the assay on UO-31 renal, greater than 100 µM.

With `O=C(OCc1nc2ccc(Br)cc2c(=O)n1-c1ccccc1)c1ccccc1O`, the TGI in the assay on M14 melanoma, with MOLT-4 leukemia, in the assay on NCI-H522 lung, in the assay with OVCAR-5 ovarian, in the assay on RPMI-8226 leukemia and in the assay on RXF 393 renal was greater than 100 µM throughout. This compound came in with a TGI in the assay on UO-31 renal greater than 100 µM.

As for `COc1ncnc2c(-c3ccco3)cn(COCc3ccccc3)c12`, the GI50 in the assay with DU-145 prostate was greater than 50 µM; in the assay with M14 melanoma, 22.5 µM; with MDA-MB-231 breast, greater than 50 µM; with NCI-H522 lung it was 9.97 µM; in the assay with OVCAR-5 ovarian, greater than 50 µM; in the assay with RPMI-8226 leukemia, 4.87 µM. In the assay with RXF 393 renal, the GI50 was greater than 50 µM. Further, the TGI with DU-145 prostate, in the assay on M14 melanoma, with MDA-MB-231 breast, in the assay on NCI-H522 lung, in the assay on OVCAR-5 ovarian and with RPMI-8226 leukemia was greater than 50 µM each time. The compound further came in with a TGI in the assay with RXF 393 renal greater than 50 µM.

Turning to `Nc1ncnc2c1ncn2Cc1ccc(C23CC4CC(CC(C4)C2)C3)c(O)c1`, the GI50 in the assay with DU-145 prostate is 27.3 µM; in the assay on MDA-MB-231 breast, 13.6 µM; in the assay on MOLT-4 leukemia, 6.72 µM; in the assay with NCI-H522 lung it was 25.6 µM; in the assay with OVCAR-5 ovarian, greater than 100 µM; with RXF 393 renal, 8.06 µM. In the assay with UO-31 renal, the GI50 was 90 µM. The TGI in the assay with DU-145 prostate was greater than 100 µM; with MDA-MB-231 breast, 63.1 µM; in the assay with MOLT-4 leukemia it was greater than 100 µM; with NCI-H522 lung, greater than 100 µM; with OVCAR-5 ovarian, greater than 100 µM; in the assay on RXF 393 renal it was 39.7 µM. This compound displayed a TGI with UO-31 renal greater than 100 µM.

On to `CCOC(=O)NNC(=O)NC12CC3CC(CC(C3)C1)C2`, for which the TGI in the assay with M14 melanoma, in the assay with MOLT-4 leukemia, with NCI-H522 lung, in the assay on OVCAR-5 ovarian, in the assay on RXF 393 renal and in the assay with UO-31 renal was greater than 100 µM throughout.

These data come from PubChem BioAssay (NCI).
